The record followed here is US20200206231A1, “TOPICAL PHARMACEUTICAL COMPOSITION, METHOD FOR PRODUCING THE TOPICAL PHARMACEUTICAL COMPOSITION, USE OF TOPICAL PHARMACEUTICAL COMPOSITION AND METHOD FOR TOPICAL TREATMENT OF PSORIASIS, ATOPIC DERMATITIS OR CHRONIC ECZEMA” (BIOLAB SANUS FARMACÊUTICA LTDA., priority 2012, published 2020).

Holding throughout (type): cell-based
Common to all, as to settings: human keratinocytes + LPS, 48 hours, mean ± standard deviation

The subject of one experiment is IL-12. As to the kind of experiment: Production of IL-12 in LPS-stimulated human keratinocyte culture (sandwich ELISA). As to the method:
(§1) the effect of formulation 1 (described in example 1) was evaluated In this study, in the synthesis of inflammatory mediators: IL-1, IL-6, IL-8, IL-10, IL-12, prostaglandin E2 (PGE2), Leukotriene B4 (LBT4), interferon gamma (IFN-gamma) and tumor necrosis factor alpha (TNF-alpha) in a culture of human keratinocytes in basal condition and stimulated with bacterial lipopolysaccharides (LPS), to simulate the inflammatory response.
(§2) Human keratinocytes (Cascade Biologics, USA) were sown in 75 cm^2 bottles (Corning Inc, USA), cultured and expanded in a wet incubator to 37° C. in the presence of CO2, using a specific culture medium. When reaching confluence, cells were seeded in 24 well plates (Nunc, USA) for further incubation with non-toxic dilutions of formulation 1, described in example 1, and for evaluation of proposed mediators.
(§3) The evaluated concentrations were 0.0002; 0.0001; and 0.000025 and 0.00005% (w/v).
(§4) Cells were kept in touch with dilutions of the formulations and LPS (Sigma, USA) for 48 hours for further collection of the supernatant and the cell lysate. As a positive control of production of mediators, the cells were kept in touch only with LPS (Sigma, USA) in the same amount administered along with the formulations (samples), and as a basal control, cells alone were used, without the presence of LPS or formulations.
(§5) Quantification of inflammatory mediators (IL-1, IL-6, IL-8, IL-10, IL-12, IFN-gamma and TNF-alpha) was performed using a kit of enzyme-linked immunosorbent assay (sandwich ELISA) commercially available. And the quantification of PGE2 and LBT4 mediators was performed by an ELISA competitive binding assay. The results were expressed in pg/mL, calculated from the values of references obtained with a standard curve constructed with known concentrations of the mediators of interest (table 2).
For orientation: In an ELISA, binding on a coated surface is turned into a signal by an enzyme label.

For another experiment, the system named is IL-10. In words: Production of IL-10 in LPS-stimulated human keratinocyte culture (sandwich ELISA). As to the method:
as §1, §2, §3, §4, §5

The test system of another experiment is IL-8. In words: Production of IL-8 in LPS-stimulated human keratinocyte culture (sandwich ELISA). As for the experimental part:
as §1, §2, §3, §4, §5

The test system of the next experiment is IL-1. As to the kind of experiment: Production of IL-1 in LPS-stimulated human keratinocyte culture (sandwich ELISA). As to the method:
as §1, §2, §3, §4, §5

The subject of the next experiment is LTB4. In words: Production of LTB4 in LPS-stimulated human keratinocyte culture (ELISA competitive binding assay). As to the method: as §1, §2, §3, §4, §5
A further experiment has as its system TNF-alpha. In words: Production of TNF-alpha in LPS-stimulated human keratinocyte culture (sandwich ELISA). As for the experimental part:
as §1, §2, §4, §5

As to `CN(Cc1cnc2nc(N)nc(N)c2n1)c1ccc(C(=O)N[C@@H](CCC(=O)O)C(=O)O)cc1` [Methotrexate], the “Production of inflammatory mediators: IL-12” value in the experiment on IL-12 (Dilution: 0.00005 (% w/v)) is given as 1042.00 ± 53.03 pg/mL; with IL-12 (Dilution: 0.0002 (% w/v)), 1004.50 ± 70.71 pg/mL. The figures for the “Production of inflammatory mediators: IL-10” value in the experiment with IL-10 (Dilution: 0.00005 (% w/v)) and in the experiment on IL-10 (Dilution: 0.0002 (% w/v)) were 29.08 ± 1.36 pg/mL and 23.11 ± 1.08 pg/mL, respectively. In addition, the “Production of inflammatory mediators: IL-8” value in the experiment on IL-8 (Dilution: 0.00005 (% w/v)) was 39.07 ± 7.53 pg/mL; with IL-8 (Dilution: 0.0002 (% w/v)), 19.39 ± 8.00 pg/mL. In addition, the entries for the “Production of inflammatory mediators: IL-1” value in the experiment on IL-1 (Dilution: 0.00005 (% w/v)) and in the experiment on IL-1 (Dilution: 0.0002 (% w/v)) were 291.69 ± 34.42 pg/mL and 187.35 ± 26.22 pg/mL, respectively. Also, the “Production of inflammatory mediators: LTB4” value with LTB4 (Dilution: 0.00005 (% w/v)) is listed as 1282.15 ± 174.81 pg/mL; in the experiment with LTB4 (Dilution: 0.0002 (% w/v)), 543.82 ± 78.75 pg/mL. In addition, the “Production of inflammatory mediators: TNF-alpha” value in the experiment with TNF-alpha (Dilution: 0.0002 (% w/v)) was 4.82 ± 0.32 pg/mL.

Take `CC(C)=CCC[C@@](C)(O)[C@H]1CC=C(C)CC1` [Alpha bisabolol, 1-methyl-4-(1,5-dimethyl-1-hydroxy-4(5)-hexenyl)-1-cyclohexene]: the “Production of inflammatory mediators: IL-12” value in the experiment on IL-12 (Dilution: 0.00005 (% w/v)) is 979.50 ± 35.35 pg/mL; in the experiment on IL-12 (Dilution: 0.0002 (% w/v)), 954.50 ± 70.71 pg/mL. The “Production of inflammatory mediators: IL-10” value was 27.15 ± 2.99 pg/mL with IL-10 (Dilution: 0.00005 (% w/v)) and 28.30 ± 1.36 pg/mL with IL-10 (Dilution: 0.0002 (% w/v)). Besides, the “Production of inflammatory mediators: IL-8” value in the experiment on IL-8 (Dilution: 0.00005 (% w/v)) is on record as 64.23 ± 13.00 pg/mL; in the experiment with IL-8 (Dilution: 0.0002 (% w/v)), 28.90 ± 9.58 pg/mL. In addition, the figures for the “Production of inflammatory mediators: IL-1” value in the experiment on IL-1 (Dilution: 0.00005 (% w/v)) and in the experiment with IL-1 (Dilution: 0.0002 (% w/v)) were 313.43 ± 33.30 pg/mL and 354.74 ± 37.03 pg/mL, respectively. In addition, the “Production of inflammatory mediators: LTB4” value with LTB4 (Dilution: 0.00005 (% w/v)) worked out at 1083.83 ± 115.59 pg/mL; in the experiment with LTB4 (Dilution: 0.0002 (% w/v)) it was 648.55 ± 11.09 pg/mL. Also, the “Production of inflammatory mediators: TNF-alpha” value came to 6.64 ± 0.32 pg/mL with TNF-alpha (Dilution: 0.00005 (% w/v)) and 8.00 ± 1.61 pg/mL with TNF-alpha (Dilution: 0.0002 (% w/v)).
